Like-named read-outs stand apart in the source and are kept apart here.
Key:
PsV of HPV-16 = experiment: microbe, parasite or virus in culture; assay type: cell-based, human papillomavirus
human rotavirus Wa [1] = experiment: Infectivity assay for rotavirus, MA104 cells, strain Wa
Protocol: (§2) The strains of human rotavirus Wa (ATCC® VR-2018), WI61 (ATCC® VR-2551), HRV 408 (ATCC® VR-2273), HRV 248 (ATCC® VR-2274) and DS-1 (ATCC® VR-2550) were acquired from the American Tissue Culture Collection (ATCC); the viruses were activated with 5 μg/ml porcine pancreatic trypsin of type IX (Sigma, St. Louis, Mo.) for 30 minutes at 37° C. and propagated in MA104 cells using MEM containing 0.5 μg of trypsin per ml as described previously (27).
(§3) The antiviral effectiveness of the oxysterols of the invention was determined by means of infectivity inhibition assay. The assays were performed with confluent monolayers of MA104 cells seeded in plates with 96 wells, as described previously (28). […] The control samples were prepared by treating the cells with culture medium with the addition of equal volumes of ethanol. The cells were then washed with medium, and the rotavirus infection was performed at a multiplicity of infection (MOI) of 0.02. After the infection, the cells were washed with medium and incubated at 37° C. in an incubator humidified at 5% (vol/vol) CO2-95% (vol/vol) of air. After 16 hours, the infected cells were fixed with a cold acetone-methanol mixture (50:50), and the virus titres were determined by means of indirect immunocytochemistry. The inhibition of the virus infectivity was expressed as a percentage comparing the mean number of infective events in the treated and non-treated samples±the standard deviations. Where possible, the values of the oxysterol concentrations able to determine 50% or 90% of the antiviral effect (EC50 and EC90 respectively) were calculated by means of regression analysis using the dose-response curves generated by the experimental data, with the use of PRISM 5.00 (GraphPad Software, San Diego, Calif., USA).

human rhinovirus 1A [2] = experiment: Infectivity assay with rhinovirus (plaque count, HeLa cells)
Protocol: The human rhinovirus 1A (ATCC® VR-1559) was acquired from ATCC. The virus was propagated in HeLa cells, at 33° C. with 5% of CO2. When the cytopathic effect (CPE) had fully developed, cells and supernatants were collected, frozen and thawed three times, clarified and divided into aliquots. The viruses were kept at −70° C. The rhinovirus titres were determined by means of the standard plaque assay. In short, the HeLa cells were seeded 2 days prior to the infection in plates with 96 wells, reaching 60%-70% confluence at the time of the infection. The viral suspension was serially diluted in DMEM supplemented with 2% fetal bovine serum and inoculated; the infected wells were incubated at 33° C. for 1 hour, allowing the viruses to adhere and enter the cells. The cells were subsequently washed with medium and covered with a 1:1 mixture of 1.6% SeaPlaque agarose (BioWhittaker Molecular Applications) and DMEM 2X [26.76 g DMEM (Gibco BRL), 20 ml of L-glutamine (Gibco BRL), 4.4 g of sodium bicarbonate (Sigma, St. Louis, Mo.), FBS 40 ml (Sigma, St. Louis, Mo.) and 1000 ml of water]. The plates were incubated at 33° C. for 3 days. At the end of the incubation, the plates were fixed with 7.5% formaldehyde (Fluka) and coloured with crystal violet (Sigma, St. Louis, Mo.). The number of plaques formed was then counted; the virus titres were expressed in terms of plaque-forming units per ml (PFU/ml).
The HeLa cells, kept in DMEM supplemented with 10% FBS and 1% Zell Shield, were seeded (at 8×10^4 cells/well) in plates with 24 wells. The medium was removed and the cells were infected with 200 microlitres/well containing approximately 30 PFU of a stock of human rhinovirus 1A. The infected cells were incubated at 33° C. for 1 h, allowing the virus to adhere and enter the cells. […] The plates were incubated at 33° C. for 5 days. After the incubation, the plates were fixed with formaldehyde at 7.5% (Fluka), coloured with crystal violet (Sigma, St. Louis, Mo.) and the number of plaques formed was counted. The oxysterol concentration values able to determine 50% or 90% of the antiviral effect (EC50 and EC90 respectively) were calculated by means of regression analysis using the dose-response curves generated by the experimental data, using PRISM 5.00 (GraphPad Software, San Diego, Calif., USA).

[3] = test system: human rotavirus (strain Wa); experiment: Rotavirus yield reduction assay; assay type: cell-based
Protocol: The cells were treated at 37° C. with 25-, 27-, 7α-, 7β-hydroxycholesterol or 7-ketocholesterol at 5.6 μM for 20 hours, then washed with medium and infected with the human rotavirus at an MOI of 0.02 (strain Wa) activated with trypsin. After one hour, the cells were washed and fresh medium was added supplemented with 0.5 μg/ml of porcine trypsin. […] The assay was performed in triplicate and the results were confirmed on Caco2 cells. In an alternative protocol, the MA104 cells were treated with oxysterols—at the concentration indicated above—after the viral inoculum. The one-way variance analysis (ANOVA), followed by the Bonferroni test, was used to evaluate the statistical significance of the virus titre differences between the treated and non-treated samples. The significance was fixed at 95%.
The results of the pre-treatment assays are illustrated in FIGS. 5 (MA104 cells) and 6 (Caco2 cells).

rotavirus = experiment: Rotavirus cell entry kinetics; assay type: cell-based; details: MA104 cells; for entry of the rotavirus into the cells (infective events): 1.9 μM for 20 hours, MOI 0.02
Protocol: To measure the entry speed of the rotavirus into the cells, confluent monolayers of MA104 cells (cultivated in plates with 96 wells) were treated with 25OHC, 27OHC or 7κC at 1.9 μM at 37° C.; after 20 hours, the cells were washed extensively with cold medium and left to cool on ice. […] The non-bound viruses were then eliminated by washing, medium was added at 37° C., and the plates were incubated at 37° C. in a humidified atmosphere. At fixed times (i.e. 0, 15, 30, 45, 60, 75 and 90 minutes after the virus-cell adhesion), the medium was extracted from the wells and the viral particles still present on the surface of the cells were eliminated by means of two rapid washing operations with EGTA 3 mM in PBS, followed by incubation in warm medium. After reaching the last time point (90 minutes from the virus-cell adhesion), the plates with 96 wells were placed in an incubator (37° C., 5% CO2), and the infection was left to proceed for a further 16 hours. The cells were then fixed and coloured as described above. The quantity of viral particles that entered the cells at each time point was compared with the quantity of virus that entered when no washing with EGTA was performed (100% entry). The ANOVA, followed by the Bonferroni test, was used to evaluate the statistical significance of the differences between the treated and non-treated samples. The significance was fixed at the level of 95%.
As a control experiment, the same treatment and infection protocol was performed on MA104 cells, cultivated in a plate with 6 wells. In this experiment, after reaching the last time point of the entry measurement (90 minutes), the cells were lysed, the proteins extracted were denatured by boiling for 5 minutes, then separated by electrophoresis on sodium dodecylsulfate gel with 12% polyacrylamide (SDS-12%PAGE) and transferred to a polyvinylidene difluoride (PVDF) membrane. The protein of the intermediate capsid VP6 was detected using the murine monoclonal antibody 2B4 (mab0036-P, CovalAb) at a dilution 1:750, followed by secondary antibody IgG-HRP (Santa Cruz Biotechnology Inc.). The actin was detected using the anti-actin murine monoclonal antibody MAB1501R (Millipore), followed by antibody IgG-HRP (Santa Cruz Biotechnology Inc.). The density of the bands was compared using the ImageJ software, and the intensity of the actin bands was used to normalize the values. The ANOVA, followed by the Bonferroni test, was used to evaluate the statistical significance of the differences between the treated and the non-treated samples. The significance was fixed at the level of 95%. The results are reported in FIG. 11 and are expressed as a percentage, comparing treated cells with cells incubated with culture medium.

LXR = details: cited from earlier work
human papillomavirus = experiment: Antiviral assay with U18666A, papillomavirus, HeLa cells; assay type: cell-based; details: HeLa cells treated 20 hours
Protocol: (§1) According to the hypothesis formulated previously, the oxysterols determine an accumulation of the intracellular cholesterol at endosomal level, inhibiting entry of the rotavirus. […] U18666A is an amphipathic steroid, widely used to block the intracellular transport of cholesterol, with consequent accumulation of the same at the level of the endosome membranes (31). In short, antiviral assays were performed treating the MA104 cells (for the rotavirus) or HeLa cells (for the papillomavirus) for 20 hours with scalar concentrations of U18666A (0.07 to 50 μM) and then infecting for one hour with the respective viruses. The effect of the treatment on the infectivity of the two viral models was evaluated as described previously. […] The experiment described therefore constitutes solid proof of the principle of the mechanism of action proposed.

human rotavirus [4] = experiment: Antiviral assay with U18666A, rotavirus, MA104 cells; assay type: cell-based; details: MA104 cells treated 20 hours, 0.07 to 50 μM
Protocol: as §1

TLR4 = details: cited from earlier work
human rotavirus Wa [5] = experiment: Infectivity assay for rotavirus repeated on Caco2 cells, strain Wa; assay type: cell-based; details: Caco-2
Excerpt: The results of the antiviral assays performed treating with 25OHC and 27OHC were confirmed repeating the infectivity assays on Caco2 cells.

TLR3 = experiment: Quantitative real time RT-PCR of TLR-3 in Caco2 cells; assay type: cell-based, human; details: CaCo2 intestinal cells, 1.9 μM, 30 minutes to 6 hours
Protocol: The Caco2 cells were cultivated in DMEM medium containing 10% serum and seeded in 25 cm^2 flasks (8 million confluence cells). The next day the cells were treated, in DMEM medium containing 2% serum, with 1.9 μM 25OHC or 27OHC (dissolved in ethanol) for 30 minutes, 1, 2, 3, 4, 5 or 6 hours. Extraction of the total RNA was performed using the TRIzol Reagent (Applied Biosystems, Monza, Italy) and the quantity and purity (A260/A280 ratio) of the extracted RNA were spectrophotometrically measured. Subsequently, 2 μg of RNA were retrotranscribed using the High-Capacity cDNA Reverse Transcription Kit (Applied Biosystems). Quantitative RT-PCR was performed with 30 ng of cDNA using the “TaqMan Gene Expression Assay kits” for TLR-3 and β-actin, TaqMan Fast Universal PCR Master Mix, and 7500 Fast Real-Time PCR System (Applied Biosystems). For each gene considered, the threshold cycle (Ct) was determined and the results were normalized using β-actin as a reference gene. The relative quantification was performed using a mathematical method previously published (29). In FIGS. 1a-1b, the results are reported as increment of the genic expression (Fold change, Fc) of the treated samples with respect to the controls.

HPV PsV (protein L1) = experiment: Assay for adhesion of the papillomavirus to the cell surface: Western blot analysis; assay type: cell-based, human papillomavirus; details: Hela cells treated 16 hours, PsV 4 hours at 4° C.
Excerpt: L1 was detected using the murine monoclonal antibody (Ab30908, Abcam, Cambridge, UK) at a dilution of 1:2000, followed by secondary antibody IgG-HRP (Santa Cruz Biotechnology Inc.). The actin was detected using an anti-actin murine monoclonal antibody (MAB1501R, Millipore), followed by secondary antibody IgG-HRP (Santa Cruz Biotechnology Inc.).

human rhinovirus 1A [6] = experiment: Rhinovirus yield reduction assay; details: HeLa cells, 5.6 μM after infection, collected 5 days after the infection
Protocol: Each well was inoculated with 200 μl of a stock of human rhinovirus 1A containing approximately 30 PFU per well and incubated for 1 hour. […] The infected cells and the supernatants were collected 5 days after the infection (when a complete CPE was visible), and titred by means of the standard plaque method, as described above.

human rotavirus DS-1 = experiment: Infectivity assay for rotavirus, MA104 cells, strain DS-1
Protocol: as §2, §3

human rotavirus WI61 = experiment: Infectivity assay for rotavirus, MA104 cells, strain WI61
Protocol: as §2, §3

human rotavirus HRV 248 = experiment: Infectivity assay for rotavirus, MA104 cells, strain HRV 248
Protocol: as §2, §3

human rotavirus HRV 408 = experiment: Infectivity assay for rotavirus, MA104 cells, strain HRV 408
Protocol: as §2, §3

human rotavirus [7] = experiment: Target identification by siRNA sensitization (TISS), human rotavirus, Caco2 cells; details: oxysterol at its EC50
Protocol: This mechanism of action vis-à-vis the rotavirus was therefore investigated, performing a target identification assay by means of sensitization with short interfering RNA (siRNA). The Caco2 cells (for the experiments with human rotavirus) or the HeLa cells (for the experiments with human papillomavirus) were seeded in a plate with 24 wells; during seeding, the cells were transfected with siRNA specific for OSBP and VAPA (at a concentration of 20 nM). […] After one day, the medium was removed and the cells inoculated with the respective viruses in the same time, temperature and MOI conditions described in the protocols of the infectivity or neutralization assays. The number of infected cells was evaluated as described in the preceding paragraphs.

[8] = pre-treatment assay, 20 hours prior to the infection
[9] = Caco2 cells, pre-treatment 5.6 μM for 20 hours, collected 48 hours after infection
[10] = MA104 cells, post-infection treatment 5.6 μM
[11] = MA104 cells, pre-treatment 5.6 μM for 20 hours, collected 48 hours after infection

CC(C)C(O)CC[C@@H](C)[C@H]1CC[C@H]2[C@@H]3CC=C4C[C@@H](O)CC[C@]4(C)[C@H]3CC[C@]12C (stereo partly shown) [24OHC, 24-hydroxycholesterol]
EC50 (PsV of HPV-16; Human papillomavirus, HeLa): 4380 nM
EC50 (human rotavirus Wa [1]): 390 nM
EC90 (human rotavirus Wa [1]): 1600 nM
EC50 (human rhinovirus 1A [2]; [8]): 770 nM
EC90 (human rhinovirus 1A [2]; [8]): 3100 nM

CC(C)CCC[C@@H](C)[C@H]1CC[C@H]2[C@@H]3C(=O)C=C4C[C@@H](O)CC[C@]4(C)[C@H]3CC[C@]12C [7κC, 7-ketocholesterol]
production of virus progenies [3, 9]: significantly limit (p<0.05) the production of virus progenies
production of virus progenies [3, 10]: antiviral activity
production of virus progenies [3, 11]: significantly limit (p<0.05) the production of virus progenies
entry of the rotavirus into the cells (infective events) (rotavirus): does not cause a significant reduction (p>0.05) in the number of infective events
LXR ligand activity (LXR): no ligand activity

CC(C)CCC[C@@H](C)[C@H]1CC[C@H]2[C@@H]3[C@H](O)C=C4C[C@@H](O)CC[C@]4(C)[C@H]3CC[C@]12C [7αOHC, 7alpha-hydroxycholesterol]
production of virus progenies [3, 10]: antiviral activity
inhibition of the infectivity of HPV (PsV of HPV-16): not able to inhibit the infectivity of HPV

CCN(CC)CCO[C@H]1CC[C@@]2(C)C(=CC[C@@H]3[C@@H]2CC[C@]2(C)C(=O)CC[C@@H]32)C1 [U18666A]
EC50 (human papillomavirus): 1740 nM
inhibition of rotavirus infectivity (human rotavirus [4]): antiviral activity is so high that calculation of the EC50 is not possible

CC(C)CCC[C@@H](C)[C@H]1CC[C@H]2[C@@H]3[C@@H](O)C=C4C[C@@H](O)CC[C@]4(C)[C@H]3CC[C@]12C [7βOHC, 7β-hydroxycholesterol]
production of virus progenies [3, 10]: antiviral activity
production of virus progenies [3, 11]: significant (P<0.05) antiviral activity
induction of TLR4 (TLR4; SH-SY5Y neuroblastoma cells): active in inducing TLR4

C[C@@H](CO)CCC[C@@H](C)[C@H]1CC[C@H]2[C@@H]3CC=C4C[C@@H](O)CC[C@]4(C)[C@H]3CC[C@]12C [27OHC, 27-hydroxycholesterol]
EC50 (human rotavirus Wa [5]): 440 nM
EC90 (human rotavirus Wa [5]): 2500 nM
production of virus progenies [3, 9]: significantly limit (p<0.05) the production of virus progenies
production of virus progenies [3, 10]: confirm the in vitro effectiveness
production of virus progenies [3, 11]: significantly limit (p<0.05) the production of virus progenies
EC50 (PsV of HPV-16; C33A cells, treated 16 hours before PsV, read-out: EC50): 6870 nM
EC50 (PsV of HPV-16; Human papillomavirus, HeLa): 9330 nM
EC50 (PsV of HPV-16; Human papillomavirus, SiHa): 28900 nM
TLR3 expression (TLR3): marked hyperexpression of TLR3
entry of the rotavirus into the cells (infective events) (rotavirus): able to limit the entry of the viral particles into the cells, shows a lesser effectiveness
viral antigen VP6 within the cells (Western blot) (rotavirus; 90 minutes after virus-cell adhesion): significantly (p<0.05) lower quantity than the non-treated control
adhesion of the PsV to the cell surface (L1 Western blot) (HPV PsV (protein L1)): not able to inhibit adhesion of the PsV to the cell surface
induction of TLR4 (TLR4; SH-SY5Y neuroblastoma cells): active in inducing TLR4
induction of TLR4 (TLR4; macrophage cell lines): active in inducing TLR4
LXR ligand activity (LXR): optimal ligands of LXR
production of viral progenies (human rhinovirus 1A [6]): totally inhibit the production of viral progenies
EC50 (human rotavirus Wa [1]): 260 nM
EC90 (human rotavirus Wa [1]): 1730 nM
EC50 (human rotavirus DS-1): 720 nM
EC90 (human rotavirus DS-1): 5850 nM
EC50 (human rotavirus WI61): 190 nM
EC90 (human rotavirus WI61): 740 nM
EC50 (human rotavirus HRV 248): 230 nM
EC90 (human rotavirus HRV 248): 3840 nM
EC50 (human rotavirus HRV 408): 400 nM
EC90 (human rotavirus HRV 408): 4560 nM
EC50 (human rhinovirus 1A [2]; post-infection treatment assay): 480 nM
EC90 (human rhinovirus 1A [2]; post-infection treatment assay): 1270 nM
EC50 (human rhinovirus 1A [2]; [8]): 620 nM
EC90 (human rhinovirus 1A [2]; [8]): 2170 nM
antiviral activity in cells with OSBP silenced (human rotavirus [7]; OSBP siRNA 20 nM): higher
antiviral activity in cells with VAP-A silenced (human rotavirus [7]; VAPA siRNA 20 nM): higher

Source: US20170137458A1, “OXYSTEROLS FOR USE IN THE TREATMENT AND PREVENTION OF DISEASES CAUSED BY VIRUSES” (priority 2014, published 2017)
